From patent US20250092065A1, “2-(INDAZOL-5-YL)-6-(PIPERIDIN-4-YL)-1,7-NAPHTHYRIDINE DERIVATIVES AND RELATED COMPOUNDS AS MODULATORS FOR SPLICING NUCLEIC ACIDS AND FOR THE TREATMENT OF PROLIFERATIVE DISEASES” (REMIX THERAPEUTICS INC., priority 2022, published 2025)
Read-outs that look alike come from different tables or passages of the source.

Experiments:
[1] = test system: HTT mRNA; assay: RT-qPCR splicing assay, HTT mRNA canonical (CJ) and alternative (AJ) junction; format: cell-based, human; conditions: Homo sapiens; for AC50: HTT alternative junction mRNA, read-out: HTT AJ (increase in AJ mRNA, AC50)
Summary of the method: (§1)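 Splice switching quantified in compound-treated A673/K562 cells after 24 h exposure (top dose 10 uM, 3-fold steps, ≤0.25% DMSO), using CJ and AJ qPCR assays run at least in duplicate. RQ derived by 2^(−ΔΔCt), then percentage response.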

[2] = test system: Target C; assay: HiBiT protein abundance assay, Target C (K562 HiBiT knock-in); format: cell-based, human; conditions: HiBiT knock-in K562 cells, 24 hours, top dose 10 μM
Summary of the method: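 K562 HiBiT knock-in cells (10000/well) were treated 24 h at 37° C with a 10-point 3-fold dilution series (top 10 μM final, ≤0.25% DMSO). HiBiT luminescence was read after lytic LgBiT detection. Percent response used unmodified K562 and DMSO-treated knock-in controls, and IC50 came from a four-parameter fit at 50% of untreated.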

[3] = test system: MYB; assay: HiBiT protein abundance assay, MYB (K562 HiBiT knock-in); format: cell-based, human; conditions: HiBiT knock-in K562 cells, 24 hours, top dose 10 μM
Summary of the method: (§2)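 Tagged-protein levels were measured as HiBiT/LgBiT luminescence in lysed K562 knock-in cells exposed to serially diluted compound (up to 10 μM final) for 24 hours. A four-parameter logistic regression of control-normalized signal yielded the IC50.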

[4] = test system: HTT; assay: HiBiT protein abundance assay, HTT (K562 HiBiT knock-in); format: cell-based, human; conditions: HiBiT knock-in K562 cells, 24 hours, top dose 10 μM
Summary of the method: as §2

[5] = test system: SMN2 mRNA; assay: RT-qPCR splicing assay, SMN2 mRNA; format: cell-based, human; conditions: Homo sapiens, canonical junction qPCR panel, Table 4; read-out: SMN2 IC50 (decrease in CJ mRNA levels)
Summary of the method: as §1

[6] = test system: K562 cells; assay: Cell Titer Glo 2.0 cell viability (toxicity) assay, K562; conditions: 500 cells/well, 72 hours
[7] = test system: MYB mRNA; assay: RT-qPCR splicing assay, MYB mRNA canonical (CJ) and alternative (AJ) junction; format: cell-based, human; conditions: Homo sapiens; for AC50: MYB alternative junction mRNA, read-out: MYB AJ (increase in AJ mRNA, AC50)
Summary of the method: as §1

[8] = HTT canonical junction mRNA, RT-qPCR, read-out: HTT CJ (decrease in CJ mRNA levels, IC50)
[9] = canonical junction qPCR panel, Table 4, read-out: HTT IC50 (decrease in CJ mRNA levels)
[10] = MYB canonical junction mRNA, RT-qPCR, read-out: MYB CJ (decrease in CJ mRNA levels, IC50)
[11] = canonical junction qPCR panel, Table 4, read-out: MYB IC50 (decrease in CJ mRNA levels)

| Compound | AC50 ([1]; RT-qPCR) | IC50 [1, 8] | IC50 [1, 9] | IC50 [2] | IC50 [3] | IC50 [4] | IC50 [5] | Effect of Exemplary Compounds on Cell Viability, K562 [6] | AC50 ([7]; RT-qPCR) | IC50 [7, 10] | IC50 [7, 11] |
| --- | --- | --- | --- | --- | --- | --- | --- | --- | --- | --- | --- |
| Cn1cc2cc(-c3ccc4cc(C5CCNCC5)c(F)cc4n3)c(O)cc2n1 [Compound 144] | > 10000 nM | > 10000 nM | > 10000 nM | > 10000 nM | > 10000 nM | > 10000 nM | > 10000 nM | D (D represents greater than 10 μM in K562 cells) | > 10000 nM | > 10000 nM | > 10000 nM |
| COc1cc2nn(C)cc2cc1-c1ccc2cc(C3CCNCC3)c(F)cc2n1 [Compound 145] | > 10000 nM | > 10000 nM | > 10000 nM | > 10000 nM | > 10000 nM | > 10000 nM | > 10000 nM | D (D represents greater than 10 μM in K562 cells) | > 10000 nM | > 10000 nM | > 10000 nM |
| Cn1cc2cc(O)c(-c3ccc4nc(C5CCNCC5)ccc4n3)cc2n1 [Compound 146] | 1000 to 10000 nM | 1000 to 10000 nM | 1000 to 10000 nM | 1000 to 10000 nM | 1000 to 10000 nM | 1000 to 10000 nM | 100 to 1000 nM | C (C represents 1000-9999 nM) | 1000 to 10000 nM | 1000 to 10000 nM | 1000 to 10000 nM |
| Cc1nc2cc(O)c(-c3ccc4nc(C5CCNCC5)ccc4n3)cc2s1 [Compound 148] | 1000 to 10000 nM | 1000 to 10000 nM | 1000 to 10000 nM | 1000 to 10000 nM | 1000 to 10000 nM | 1000 to 10000 nM | < 100 nM | B (B represents 100-1000 nM) | 100 to 1000 nM | 100 to 1000 nM | 100 to 1000 nM |
| Cc1cn2cc(-c3ccc4nc(C5CCNCC5)ccc4n3)c(O)cc2n1 [Compound 149] | > 10000 nM | > 10000 nM | > 10000 nM | > 10000 nM | 1000 to 10000 nM | 1000 to 10000 nM | 100 to 1000 nM | C (C represents 1000-9999 nM) | > 10000 nM | 1000 to 10000 nM | 1000 to 10000 nM |
| Cc1cn2nc(-c3ccc4nc(C5CCNCC5)ccc4n3)c(O)c2c(C)n1 [Compound 150] | < 100 nM | < 100 nM | < 100 nM | < 100 nM | < 100 nM | < 100 nM | < 100 nM | A (A represents <100 nM) | < 100 nM | < 100 nM | < 100 nM |
| c1c[nH]c(-c2ccc3nc(C4CCNCC4)ccc3n2)n1 [Compound 152] | > 10000 nM | > 10000 nM | > 10000 nM | > 10000 nM | > 10000 nM | > 10000 nM | 1000 to 10000 nM | D (D represents greater than 10 μM in K562 cells) | > 10000 nM | > 10000 nM | > 10000 nM |
| Cn1cc2cc(-c3ccc4nc(N5CC[C@@H](NC(C)(C)C)C5)ccc4n3)c(O)cc2n1 [Compound 153] | < 100 nM | < 100 nM | < 100 nM | < 100 nM | < 100 nM | < 100 nM | < 100 nM | B (B represents 100-1000 nM) | < 100 nM | < 100 nM | < 100 nM |
| Cn1cc2cc(-c3ccc4nc(N5CC[C@H](NC(C)(C)C)C5)ccc4n3)c(O)cc2n1 [Compound 154] | < 100 nM | < 100 nM | < 100 nM | < 100 nM | < 100 nM | < 100 nM | < 100 nM | A (A represents <100 nM) | < 100 nM | 100 to 1000 nM | 100 to 1000 nM |
| Cn1cc2cc(-c3ccc4nc(N5CC[C@@H](NC6CCC6)C5)ccc4n3)c(O)cc2n1 [Compound 157] | < 100 nM | < 100 nM | < 100 nM | 100 to 1000 nM | < 100 nM | < 100 nM | < 100 nM | B (B represents 100-1000 nM) | < 100 nM | < 100 nM | < 100 nM |
